According to PubChem BioAssay AID608 (Sanford-Burnham Center for Chemical Genomics, 2007):
The source made the active and inactive calls. No rule for the calls is given here.

target: Peptidyl-prolyl cis-trans isomerase FKBP1A (Homo sapiens) (UniProt P62942); assay: FKBP12 binders, biophysical, NMR detection (AID 608); conditions: NMR binding, purified FKBP12
Sequence (P62942 whole entry, looked up): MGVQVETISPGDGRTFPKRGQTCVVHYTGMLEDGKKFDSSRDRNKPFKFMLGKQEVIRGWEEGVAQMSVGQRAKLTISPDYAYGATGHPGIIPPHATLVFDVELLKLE

SMILES	Kd
NCc1ccc(-c2csnn2)cc1	> 4 mM (inactive)
CCn1cnc2scc(-c3ccccc3)c2c1=O	> 4 mM (inactive)
COC(=O)Nc1c(C)n(C)n(-c2ccccc2)c1=O	> 4 mM (inactive)
Nc1nnc(SCc2ccc3c(c2)OCO3)s1	> 4 mM (inactive)
Cc1cc(C)c(NC(=O)CN2CCC(O)CC2)c(C)c1	> 4 mM (inactive)
CC(=O)Oc1ccc2c(c1)c(C(C)=O)c(C)n2C	> 4 mM (inactive)
Cc1csc2nc(N)nn12	> 4 mM (inactive)
O=C1NC(=O)C(C(=S)Nc2ccccc2)C(=O)N1	> 4 mM (inactive)
NCc1ccc2c(c1)OCCO2	> 4 mM (inactive)
COc1ccccc1-c1n[nH]c(=O)o1	> 4 mM (inactive)
C=C(C)[C@H]1Cc2c(ccc3c2O[C@@H]2COc4cc(OC)c(OC)cc4[C@@H]2C3=O)O1	> 4 mM (inactive)
Nc1ccccc1N=C1CNC(=O)C1	> 4 mM (inactive)
CC(C)C1COc2cc3oc(=O)ccc3cc2O1 (stereo not drawn)	> 4 mM (inactive)
CC(=O)N1CCN(S(=O)(=O)c2ccccc2)CC1	> 4 mM (inactive)
O=c1nc(C(F)(F)F)nc2ccccn12	> 4 mM (inactive)
COc1nc(C)ccc1-c1noc(-c2ccncc2)n1	> 4 mM (inactive)
CN(C)CCCN1CNC(=S)NC1	> 4 mM (inactive)
NCc1cn2ccccc2n1	> 4 mM (inactive)
O=C(Nc1ccccc1)NC1CCS(=O)(=O)C1 (stereo not drawn)	> 4 mM (inactive)
CC1(C)CC2C1CCC1(C)OC1CCC2(C)O (stereo not drawn)	> 4 mM (inactive)
c1ccc(Cc2nnc3sc(-c4ccccn4)nn23)cc1	> 4 mM (inactive)
O=C(Cn1c(-c2cscn2)nc2ccccc21)Nc1ccc(Oc2ccc(F)cc2)cc1	> 4 mM (inactive)
CCn1nnc(NC(=O)c2cc3ccccc3o2)n1	> 4 mM (inactive)
CN1CCC2(CC1)CC1CC3C=CC1(CN2)O3 (stereo not drawn)	> 4 mM (inactive)
O=c1[nH]c2sc3c(c2c2nncn12)CCCC3	> 4 mM (inactive)

SMILES	Kd
O=C1CCCc2c(O)cccc21	> 4 mM (inactive)
COC(=O)C1=CO[C@@H](O[C@@H]2O[C@H](CO)[C@@H](O)[C@H](O)[C@H]2O)[C@@H]2[C@@H](C)[C@@H](O)C[C@H]12	> 4 mM (inactive)
CCOC(=O)c1c(SC)nc(=O)[nH]c1C	> 4 mM (inactive)
Cc1nc(NCc2ccco2)nc2c1C(=O)CC(C)C2 (stereo not drawn)	> 4 mM (inactive)
Cc1cc(C)nc(N(C#N)Cc2ccccc2)n1	> 4 mM (inactive)
CSc1nc2nc(C)cc(=O)n2[nH]1	> 4 mM (inactive)
O=C1NC(=O)C(Cc2cccs2)C(=O)N1	> 4 mM (inactive)
CC(=O)c1cc(-c2nc3ccccc3n2C)n(C)c1	> 4 mM (inactive)
Fc1ccc(NC2=NCCS2)cc1Cl	> 4 mM (inactive)
O=C(Nc1cnc2ccccn2c1=O)c1ccc(F)cc1	> 4 mM (inactive)
Cc1nc2ccccc2c2c1C(=O)N(C)C2=O	> 4 mM (inactive)
Cn1nnc2cc(C(=O)O)ccc21	> 4 mM (inactive)
Cc1noc(C)c1C(=O)NC1=NCCS1	> 4 mM (inactive)
O=c1[nH]cc(NC(=S)N2CCOCC2)c(=O)[nH]1	> 4 mM (inactive)
Cn1ncc(N2CCOCC2)c(Cl)c1=O	> 4 mM (inactive)
CS(=O)(=O)N1CCN(C(=O)c2ccccc2F)CC1	> 4 mM (inactive)
O=C(Nc1ccccc1)c1cccc(N2C(=O)CCC2=O)c1	> 4 mM (inactive)
COc1ccc(Cc2nccc3cc(OC)c(OC)cc23)cc1OC	> 4 mM (inactive)
COc1ccc2c(Cl)c(C(=O)N3CCOCC3)sc2c1	inactive
CC(C)(C)C(=O)Nc1ncc(C(F)(F)F)cc1Cl	> 4 mM (inactive)
c1cnc(N2CCSCC2)nc1	> 4 mM (inactive)
O=C(Nc1ccc2c(c1)OCO2)c1cnn2cccnc12	> 4 mM (inactive)
CC(=O)Nc1ccc(NC(C)=O)cc1	> 4 mM (inactive)
CC(CCC(=O)O)[C@H]1CCC2C3CC[C@@H]4C[C@H](O)CC[C@]4(C)C3C[C@H](O)[C@@]21C (stereo partly drawn)	> 4 mM (inactive)
CC1CCC2(OC1)OC1CC3C4CCC5C[C@@H](O)CCC5(C)C4=CCC3(C)C1[C@@H]2C (stereo partly drawn)	> 4 mM (inactive)

SMILES	Kd
CCOC(=O)Cc1nc2ccccc2[nH]1	> 4 mM (inactive)
O=C1CN(C(=O)CN2CCOCC2)c2ccccc2N1	> 4 mM (inactive)
CCOC(=O)C1CCN(c2ccc(C#N)cc2)CC1	> 4 mM (inactive)
O=C(O)c1ccc2c(c1)OCCO2	> 4 mM (inactive)
COC(=O)CCSCC(=O)Nc1nccs1	> 4 mM (inactive)
CN1C2CC3C[C@H]1C(O3)C2O (stereo partly drawn)	> 4 mM (inactive)
O=c1c(O)c(-c2ccccc2)oc2ccc3occc3c12	> 4 mM (inactive)
O=P(O)(Cc1ccccc1)c1ccccc1	> 4 mM (inactive)
CCOC(=O)c1cc2ccccc2oc1=O	> 4 mM (inactive)
CCc1ccccc1OCc1nnc(N)s1	> 4 mM (inactive)
C=C1CCC(C2CC(=O)OC2=O)C(=O)CCC2C1CC2(C)C (stereo not drawn)	> 4 mM (inactive)
Cc1cc(SCC(=O)Nc2nccs2)nc(=O)[nH]1	> 4 mM (inactive)
O=C1CSC(=Nc2cc(Cl)ccc2Cl)N1	> 4 mM (inactive)
Cc1nnc(SCC(=O)NCc2ccccc2)[nH]c1=O	> 4 mM (inactive)
NC(=O)c1ccc(SCC(=O)O)c([N+](=O)[O-])c1	> 4 mM (inactive)
O=c1[nH]cc(N2CCCCC2)c(=O)[nH]1	> 4 mM (inactive)
O=C1NC(=S)NC(=O)C1=Cc1ccccc1O	> 4 mM (inactive)
Nc1nc(-c2cccnc2)nn1C(=O)Cc1ccccc1	> 4 mM (inactive)
[O-][n+]1c2ccccc2[n+]([O-])c2cc(O)ccc21	> 4 mM (inactive)
Fc1cccc(F)c1CN1CCN(c2ncccn2)CC1	> 4 mM (inactive)
CCCNC(=O)c1cnc2n(c1=O)CCS2	> 4 mM (inactive)
O=C(O)C1(O)C[C@@H](O)C(O)[C@H](O)C1 (stereo partly drawn)	> 4 mM (inactive)
O=C1NC(=S)NC(=O)C1=Cc1cccs1	> 4 mM (inactive)
COc1c(F)c(F)c(-c2csc(N)n2)c(F)c1F	> 4 mM (inactive)
O=C1OCCC1Sc1nc2ccccc2c(=O)[nH]1 (stereo not drawn)	> 4 mM (inactive)

SMILES	Kd
O=C(O)CNc1ncnc2nc[nH]c12	> 4 mM (inactive)
CCOC(=O)c1cc(C)[nH]n1	> 4 mM (inactive)
Cc1nc2ccc(F)cc2cc1C(=O)NCc1ccco1	> 4 mM (inactive)
O=C1C2CC=C(Cl)CC2C(=O)N1c1ccccc1O (stereo not drawn)	> 4 mM (inactive)
CC1CCN(C(=O)c2ccc(NS(C)(=O)=O)cc2)CC1	> 4 mM (inactive)
O=C(COc1ccccc1)N1CCc2ccccc2C1	> 4 mM (inactive)
Nc1c2c3c(sc2nc(=O)n1N)CCCC3	> 4 mM (inactive)
CNC(=S)Nc1ncn(Cc2cccc(F)c2)n1	> 4 mM (inactive)
CNC[C@@H](O)c1ccc(O)c(O)c1	> 4 mM (inactive)
Cc1cc(C(=O)NCc2cccs2)cs1	> 4 mM (inactive)
Cc1nc2c(=O)[nH]c3ccccc3c2o1	> 4 mM (inactive)
COCc1cc(=O)oc2cc(N)ccc12	> 4 mM (inactive)
CCCCCCCCCCCCCc1ccco1	> 4 mM (inactive)
CC(C)C(C)/C=C/C(C)[C@H]1CCC2C3=CCC4CC(=O)CC[C@]4(C)C3CC[C@@]21C (stereo partly drawn)	> 4 mM (inactive)
CN1CCN(CC(=O)NC2CCCCC2)CC1	> 4 mM (inactive)
O=C(O)c1ccccc1N1CCOCC1	> 4 mM (inactive)
COC(=O)c1ccc2nccnc2c1	> 4 mM (inactive)
O=C(Cn1cncn1)c1ccc(F)c(F)c1	> 4 mM (inactive)
COCCn1c(C)cc(O)cc1=O	> 4 mM (inactive)
Nc1nnc(SCc2ccc(F)cc2)s1	> 4 mM (inactive)
Cc1c(C(=O)NCc2ccccn2)oc2ccccc12	> 4 mM (inactive)
COc1ccccc1NC(=O)c1cc[n+]([O-])cc1	> 4 mM (inactive)
CC1(C)Cc2nc3n[nH]c(N)c3cc2CO1	> 4 mM (inactive)
CC(C(N)=O)N1C(=O)c2ccccc2C1=O (stereo not drawn)	> 4 mM (inactive)
Cc1cc2c(nn1)CCc1nonc1-2	> 4 mM (inactive)

SMILES	Kd
CCNC(CC(=O)Nc1ccc(F)cc1)C(=O)O (stereo not drawn)	> 4 mM (inactive)
COc1cnn(Cc2ccccc2)c(=O)c1Cl	> 4 mM (inactive)
O=C(Cc1ccc(F)cc1)Nc1ncccn1	> 4 mM (inactive)
COc1cccc(OCC(=O)N2CCOCC2)c1	inactive
O=C1Cn2c(nc3ccccc32)N1c1ccccc1F	> 4 mM (inactive)
CC(=O)Nc1ccc(NC(C)=O)c(C(F)(F)F)c1	> 4 mM (inactive)
O=C(O)Cn1cnc2ccccc2c1=O	> 4 mM (inactive)
CCN1CCc2c(sc(N)c2C(N)=O)C1	> 4 mM (inactive)
Cc1n[nH]c(=S)n1-c1ccc(C(=O)O)cc1	> 4 mM (inactive)
Nc1ccc2c(c1)CCC2=O	> 4 mM (inactive)
CN1CCN(C(=S)NC(=O)c2ccn(C)n2)CC1	> 4 mM (inactive)
O=C(CNC(=O)c1ccc(F)cc1)NC1=NCCS1	> 4 mM (inactive)
O=C(Nc1nnc(C(F)(F)F)s1)c1cccnc1	> 4 mM (inactive)
Cc1cc(C(=O)N2CCCCCC2)cs1	> 4 mM (inactive)
COc1ccc(C(N)=O)cc1NC(C)=O	> 4 mM (inactive)
CN1CCN(C2CCN(Cc3ccccc3)CC2)CC1	> 4 mM (inactive)
C=C1CCC(=O)C(C)CCC2C1CC2(C)C (stereo not drawn)	> 4 mM (inactive)
Cc1cc2cc(N)ccc2[nH]1	> 4 mM (inactive)
COc1cccc(-c2nn(-c3ccccc3)cc2CO)c1	> 4 mM (inactive)
CC1Cc2nc(SCC(N)=O)n(C)c(=O)c2S1 (stereo not drawn)	> 4 mM (inactive)
CC(C)=CCc1c(O)cc(C)oc1=O	> 4 mM (inactive)
NS(=O)(=O)c1ccc(NC(=S)NC2CC2)cc1	> 4 mM (inactive)
NC(=O)c1ccc(-c2csnn2)cc1	> 4 mM (inactive)
